Measurements: patent publication EP0250254A1, “Cis & trans stilbenes and their composition for the treatment of hypertension” (McNeilab, Inc., priority 1986, dated 1987)
Where a name gives a salt, the structure may show the parent alone. Read-outs that look alike come from different tables or passages of the source. Marks after values point to notes of the source that are not given here.

Assays:
[1] = test system: spontaneously hypertensive rats; assay: Spontaneously Hypertensive Rat (SHR) test, arterial pressure monitored via aortic cannula; type: in vivo; details: SH rats
Protocol: The activity of compounds of formula (I) for the treatment of hypertension was determined using the Spontaneously Hypertensive Rat (SHR) test as described below.
In this test, the arterial pressure of adult spontaneously hypertensive rats (Charles River) is monitored directly via an aortic cannula. The SH rats are anesthetized with an intravenous anesthetic (methohexital). The left carotid artery is isolated and cannulated. The tip of the cannula is advanced to the aorta and the cannula is exteriorized behind the neck at the level of the scapula. Animals are placed in individual cages and allowed to recover from the anesthetic and are kept unrestrained. The arterial cannula is connected to the pressure transducer which is attached to the recorder. The test compounds are administered to at least 3 rats at doses selected in the range of 0.l to l00 mg/kg of body weight by intraperitoneal (i.p.) or oral (p.o.) routes of administration. The arterial pressure and heart rate are monitored for a minimum of 22 hours. A test compound is considered to be active as an antihypertensive agent if the mean arterial pressure (MAp) indicates a fall of >l5 mm of Hg. Each animal serves as its own control.
The results of this test for compounds of formula (I). expressed as "Max Fall Bp" (Maximum Fall in Mean Arterial pressure) are shown in Table I.

coronary arteries = assay: Langendorff's isolated heart preparation, increase in coronary flow; details: read-out: EC30 (minimum concentration needed to elicit a 30 percent increase in coronary flow)
Protocol: In addition to their utility in the treatment of hypertension, the compounds of formula (I) are useful in the treatment of the symptoms of angina pectoris by virtue of their ability to dilate coronary arteries. Their activity was measured using the "Langendorff's isolated heart" preparation. This test has been described in "Pharmacological Experiments on Isolated Preparations", Staff of the Department of Pharmacology, University of Edinborough, 2nd Ed., Churchill Livingstone, N.Y., l970, pp. ll2-ll9. The test compounds were administered at concentrations of 3000, l000, 300, l00, 30, l0, 3, l and 0.3 nanomolar (l0⁻⁹ molar).
The minimum concentration (EC₃₀) needed to elicit a 30 percent increase in coronary flow is shown in Table I for compounds of the formula (I) with […].

[2] = dose 30 mg/kg of body weight p.o., salt form tested per footnotes

Compound	Max Fall BP (Maximum Fall in Mean Arterial pressure) [1, 2]	EC30 (coronary arteries; salt form tested per footnotes) [nM]	Max Fall BP (Maximum Fall in Mean Arterial pressure) ([1]; dose 10 mg/kg of body weight given i.p., tested as the fumarate salt)	Max Fall BP (Maximum Fall in Mean Arterial pressure) ([1]; dose 10 mg/kg of body weight p.o., tested as the chloride salt)	EC30 (coronary arteries; tested as free base) [nM]
COc1ccc(/C=C\c2ccccc2)c(CC(C)NCCc2c(Cl)cccc2Cl)c1 (stereo not drawn) [Example 2d, N-[2-(2,6-Dichlorophenyl)ethyl]-5-methoxy-α-methyl-2Z-(2-phenylethenyl)benzeneethanamine (E)-2-Butenedioate (2:l)]	18 (30) mm of Hg	55			
COc1cc(CCNC(C)Cc2cc(OC)ccc2/C=C\c2ccccc2)cc(OC)c1 (stereo not drawn) [Example 3c, N-[2-(3,5-Dimethoxyphenyl)ethyl]-5-methoxy-α-methyl-2Z-(2-phenylethenyl)benzeneethanamine (E)-2-Butenedioate (2:l)]		57	38 (10)^b mm of Hg		
COc1ccc(/C=C\c2ccccc2)c(CC(C)NCCc2ccc(OC)c(OC)c2)c1 (stereo not drawn) [Example 4c, N-[2-(3,4-Dimethoxyphenyl)ethyl]-5-methoxy-α-methyl-2Z-(2-phenylethenyl)benzeneethanamine Hydrochloride]	21 (30) mm of Hg	2			
COc1ccc(/C=C/c2ccccc2)c(CCC(C)N(C)CCc2ccc(OC)c(OC)c2)c1 (stereo not drawn) [Example 5, N-[2-(3,4-Dimethoxyphenyl)ethyl]-5-methoxy-N,α-dimethyl-2E-(2-phenylethenyl)benezenepronanamine Hydrochloride]	43 (30) mm of Hg	12			
COc1ccc(/C=C\c2ccccc2)c(CCC(C)N(C)CCc2ccc(OC)c(OC)c2)c1 (stereo not drawn) [Example 6e, N-[2-(3,4-Dimethoxyphenyl)ethyl]-5-methoxy-N,α-dimethyl-2Z-(2-phenylethenyl)benzenepropanamine (E)-2-Butenedioate (2:l)]	17 (30) mm of Hg	19			
COc1ccc(/C=C/c2ccccc2)c(CCCN(C)CCc2ccc(OC)c(OC)c2)c1 [Example 7e, N-[2-(3,4-Dimethoxyphenyl)ethyl]-5-methoxy-N-methyl-2E-(2-phenylethenyl)benzenepropanamine Biscyclohexylsulfamate]	16 (30) mm of Hg	0.4			
COc1ccc(/C=C/c2ccccc2)c(CC(C)NCCc2ccc(OC)c(OC)c2)c1 (stereo not drawn) [Example 8b, N-[2-(3,4-Dimethoxyphenyl)ethyl]-5-methoxy-α-methyl-2E-(2-phenylethenyl)benzeneethanamine Hydrochloride]	77 (30) mm of Hg	1		80 (10) mm of Hg	
COc1ccc(/C=C/c2ccccc2)c(CC(C)NCCc2ccc(Cl)c(Cl)c2)c1 (stereo not drawn) [Example 9, N-[2-(3,4-Dichlorophenyl)ethyl)-5-methoxy-α-methyl-2E-(2-phenylethenyl)benzeneethanamine Hydrochloride]	90 (30) mm of Hg	24			
COc1cc(CCNC(C)Cc2cc(OC)ccc2/C=C/c2ccccc2)cc(OC)c1 (stereo not drawn) [Example 10, N-[2-(3,5-Dimethoxyphenyl)ethyl]-5-methoxy-α-methyl-2E-(2-phenylethenyl)benzeneethanamine (E)-2-Butendioate (3:5)]	53 (30)* mm of Hg				1
